From US8933066B2, “Compounds for the treatment of hepatitis C” (priority 2011, dated 2015)
Where two headings read alike, the source gives them in different places.

System: HCV pseudoparticles (genotype 1a HCV E1 and E2 envelope, H77C isolate)
Assay: HCV pseudoparticle infection assay (luciferase reporter, entry into Huh7 cells)
Assay type: cell-based
Conditions: Hepatitis C virus, Huh-7, 48 h
[1] = read-out: Activity Range (EC50)

Compound | EC50 [1] | EC50
FC(F)(F)COc1nc2nc(n1)Nc1cnn(c1)CCCCCCOc1ccc(cc1)CN2 [Example 3001] | 0.0001 to 0.5 µM | 
CC(C)(C)NC(=O)N1CCCOc2ccc(cc2)CNc2nc(nc(OCC(F)(F)F)n2)Nc2cnn(c2)CC1 [Example 2007] | 0.0001 to 0.5 µM | 0.105 µM
FC(F)(F)COc1nc2nc(n1)Nc1cnn(c1)CCOCCOCCOc1ccc(cc1)CN2 [Example 2002] | 0.0001 to 0.5 µM | 
FC(F)(F)COc1nc2nc(n1)Nc1cnn(c1)CCNCCCOc1ccc(cc1)CN2 [Example 2006] | 0.0001 to 0.5 µM | 
